Results as given in ChEMBL document CHEMBL5050844 (2019).

Legend:
Assay type in all cases: functional, T cell line
[1] = Induction of anti-CD3/CD28 antibodies-stimulated human T cell activation at 0.3 uM assessed fold increase in CD25 expression measured by ELISA assay
[2] = Induction of anti-CD3/CD28 antibodies-stimulated human T cell activation at 0.3 uM assessed fold increase in IL-2 secretion measured by ELISA assay
[3] = Induction of anti-CD3 antibodies-stimulated human T cell activation at 1 uM assessed fold increase in CD25 expression measured by ELISA assay; note: reference of the scale not given here
[4] = Induction of anti-CD3/CD28 antibodies-stimulated human T cell activation at 1 uM assessed fold increase in CD25 expression measured by ELISA assay
[5] = Induction of anti-CD3/CD28 antibodies-stimulated human T cell activation at 4 uM assessed fold increase in IL-2 secretion measured by ELISA assay
[6] = Induction of anti-CD3/CD28 antibodies-stimulated human T cell activation at 1 uM assessed fold increase in IL-2 secretion measured by ELISA assay
[7] = Induction of anti-CD3 antibodies-stimulated human T cell activation at 1 uM assessed fold increase in IL-2 secretion measured by ELISA assay; note: reference of the scale not given here
[8] = Induction of anti-CD3/CD28 antibodies-stimulated human T cell activation at 4 uM assessed fold increase in CD25 expression measured by ELISA assay
[9] = Induction of anti-CD3 antibodies-stimulated human T cell activation at 8 uM assessed fold increase in CD25 expression measured by ELISA assay; note: reference of the scale not given here
[10] = Induction of anti-CD3 antibodies-stimulated human T cell activation at 8 uM assessed fold increase in IL-2 secretion measured by ELISA assay; note: reference of the scale not given here

Row | SMILES | fold change (FC) [1] | fold change (FC) [2] | fold change (FC) [3] | fold change (FC) [4] | fold change (FC) [5] | fold change (FC) [6] | fold change (FC) [7] | fold change (FC) [8] | fold change (FC) [9] | fold change (FC) [10] | fold change (FC) ([2]; 0.3 µM) | fold change (FC) ([5]; 4 µM) | fold change (FC) ([6]; 1 µM) | fold change (FC) ([7]; 1 µM) | fold change (FC) ([9]; 8 µM)
1 | Cn1cnnc1C(F)(F)C(C)(F)c1cccc(N2Cc3c(cccc3C(F)(F)F)C2=O)c1 (racemic) | 1.01 | <=1 | 0.601 | 1.01 | 1.01 | <=1 | >=0.201 | 1.01 | 0.601 | >=0.201 | – | – | – | – | –
2 | C[C@H](Sc1nncn1C)c1ccnc(NC(=O)c2cc(C3CC3)cc(C(F)(F)F)n2)c1 | <=1 | 1.01 | 0.601 | <=1 | 1.01 | 1.01 | <=0.05 | 1.01 | 0.801 | <=0.05 | – | – | – | – | –
3 | C[C@H](Cc1nncn1C)c1cccc(NC(=O)c2cc(S(N)(=O)=O)cc(C(F)(F)F)n2)c1 | 1.01 | <=1 | 0.801 | 1.01 | 1.01 | <=1 | <=0.05 | 1.01 | >=1.001 | 0.051 | – | – | – | – | –
4 | Cc1ccc(C(=O)Nc2cccc(C(C)Cc3nccn3C)c2)nc1C1CC1 (stereo in doubt; 214) | <=1 | – | <=0.6 | <=1 | – | – | – | 1.01 | – | 0.051 | >=7.5 | >=7.5 | >=7.5 | 0.051 | <=0.6
5 | Cn1cnnc1C(F)(F)[C@@](C)(F)c1cccc(N2Cc3c(cc(CN4CC[C@H](F)C4)cc3C(F)(F)F)C2=O)c1 | <=1 | <=1 | 0.601 | <=1 | 1.01 | <=1 | 0.051 | 1.01 | 0.801 | 0.051 | – | – | – | – | –
6 | Cn1cnnc1[C@@H](F)[C@](C)(F)c1cccc(N2Cc3c(cccc3C(F)(F)F)C2=O)c1 (single isomer, unassigned) | 1.01 | 1.01 | <=0.6 | 1.01 | 1.01 | 1.01 | <=0.05 | 1.01 | 0.601 | 0.051 | – | – | – | – | –
7 | C[C@H](Cc1nncn1C)c1cccc(NC(=O)c2[nH]nc3c2CCCC3)c1 | 1.01 | 1.01 | 0.601 | 1.01 | 1.01 | 1.01 | 0.051 | 1.01 | 0.801 | 0.051 | – | – | – | – | –
8 | C[C@H](Sc1nncn1C)c1cccc(NC(=O)c2ccnc(C(F)(F)F)n2)c1 | 1.01 | 1.01 | 0.601 | 1.01 | 1.01 | 1.01 | <=0.05 | 1.01 | 0.801 | 0.051 | – | – | – | – | –
9 | C[C@H](CO)Nc1cc([C@H](C)Cc2nncn2C)cc(N2Cc3c(cccc3C(F)(F)F)C2=O)n1 | 1.01 | 1.01 | 0.801 | 1.01 | 5 | 2.51 | 0.051 | 1.31 | >=1.001 | >=0.201 | – | – | – | – | –
10 | C[C@H](Sc1nncn1C)c1cccc(NC(=O)c2cc3ccccc3cn2)c1 | 1.01 | 1.01 | <=0.6 | 1.01 | 1.01 | 1.01 | <=0.05 | 1.01 | <=0.6 | 0.051 | – | – | – | – | –
11 | C[C@H](Sc1nnc[nH]1)c1cccc(NC(=O)c2cc3ccccc3cn2)c1 | <=1 | 1.01 | <=0.6 | <=1 | 1.01 | 1.01 | 0.051 | <=1 | <=0.6 | 0.051 | – | – | – | – | –
12 | Cc1cnnn1C[C@@H](C)c1cccc(NC(=O)c2cccc(C(F)(F)F)n2)c1 | <=1 | 1.01 | 0.601 | 1.01 | 2.51 | 1.01 | 0.051 | 1.01 | 0.801 | 0.151 | – | – | – | – | –
13 | CC(Cc1nncn1C)c1cc(N[C@@H]2CCOC2)nc(N2Cc3c(cccc3C(F)(F)F)C2=O)c1 (single isomer, unassigned) | <=1 | 1.01 | 0.601 | 1.01 | 1.01 | 1.01 | 0.051 | 1.01 | 0.801 | 0.101 | – | – | – | – | –
14 | C[C@H](Sc1nncn1C)c1cccc(NC(=O)c2cc(C(C)(C)O)c(Cl)cn2)c1 | 1.01 | 1.01 | <=0.6 | 1.01 | 1.01 | 1.01 | <=0.05 | 1.01 | 0.601 | <=0.05 | – | – | – | – | –
15 | Cc1cc(C(=O)Nc2cc([C@H](C)Sc3nncn3C)ccn2)nc(C(F)(F)F)c1 | <=1 | 1.01 | <=0.6 | <=1 | 1.01 | 1.01 | <=0.05 | 1.01 | 0.801 | 0.051 | – | – | – | – | –
16 | CN1CCN(c2cc3c(c(C(F)(F)F)c2)CN(c2cccc([C@@](C)(F)C(F)(F)c4nncn4C)c2)C3=O)CC1 | 1.01 | 1.01 | 0.601 | 1.01 | 2.51 | 1.01 | 0.051 | 1.01 | >=1.001 | 0.151 | – | – | – | – | –
17 | C[C@H](Sc1nncn1C)c1ccnc(N2Cc3c(cccc3C(F)(F)F)C2=O)c1 | <=1 | 2.51 | <=0.6 | <=1 | 2.51 | 2.51 | <=0.05 | <=1 | <=0.6 | <=0.05 | – | – | – | – | –
18 | Cn1cnnc1[C@H](F)[C@@](C)(F)c1cccc(N2Cc3c(cc(C4CC4)cc3C(F)(F)F)C2=O)c1 (single isomer, unassigned; 483) | 1.01 | <=1 | 0.601 | 1.01 | 1.01 | 1.01 | 0.051 | 1.01 | 0.801 | 0.051 | – | – | – | – | –
19 | C[C@@H](c1cccc(N2Cc3c(cccc3C(F)(F)F)C2=O)c1)[C@H](F)c1nncn1C (racemic) | 1.01 | 1.01 | 0.601 | 1.01 | 2.51 | 1.01 | 0.051 | 1.01 | >=1.001 | 0.151 | – | – | – | – | –
20 | Cn1cnnc1CC(c1cccc(N2Cc3c(cccc3C(F)(F)F)C2=O)c1)C(F)(F)F (stereo not given) | 1.01 | <=1 | 0.801 | 1.01 | 1.01 | <=1 | 0.101 | 1.01 | 0.801 | 0.151 | – | – | – | – | –
21 | C[C@H](Sc1nncn1C)c1cccc(NC(=O)c2cc(C(F)(F)F)ccn2)c1 | 1.01 | <=1 | 0.601 | 1.01 | 1.01 | 1.01 | <=0.05 | 1.01 | >=1.001 | 0.101 | – | – | – | – | –
